According to ChEMBL document CHEMBL1145498, “A systematic interaction map of validated kinase inhibitors with Ser/Thr kinases” (Proc Natl Acad Sci U S A, 2007):

Columns and labels:
[1] = target: Calcium/calmodulin-dependent protein kinase type II subunit gamma (Homo sapiens) (UniProt Q13555)
[2] = target: T1, Calcium/calmodulin-dependent protein kinase type IV (Homo sapiens) (UniProt Q16566)
T1 sequence (whole entry): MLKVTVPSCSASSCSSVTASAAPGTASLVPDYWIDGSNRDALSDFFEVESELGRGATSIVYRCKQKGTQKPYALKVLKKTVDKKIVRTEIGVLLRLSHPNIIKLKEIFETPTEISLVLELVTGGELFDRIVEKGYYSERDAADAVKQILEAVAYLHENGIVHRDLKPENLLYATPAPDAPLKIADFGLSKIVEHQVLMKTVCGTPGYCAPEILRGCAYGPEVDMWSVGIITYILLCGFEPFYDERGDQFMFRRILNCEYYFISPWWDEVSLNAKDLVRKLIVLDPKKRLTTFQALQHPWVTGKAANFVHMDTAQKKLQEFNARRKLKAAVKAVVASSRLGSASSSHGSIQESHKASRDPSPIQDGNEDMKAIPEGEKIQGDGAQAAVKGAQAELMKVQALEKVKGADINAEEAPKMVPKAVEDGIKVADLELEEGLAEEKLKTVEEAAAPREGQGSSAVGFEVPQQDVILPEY

[3] = target: Casein kinase I isoform gamma-3 (Homo sapiens) (UniProt Q9Y6M4)
[4] = target: T2, Dual specificity mitogen-activated protein kinase kinase 6 (Homo sapiens) (UniProt P52564)
T2 sequence (whole entry): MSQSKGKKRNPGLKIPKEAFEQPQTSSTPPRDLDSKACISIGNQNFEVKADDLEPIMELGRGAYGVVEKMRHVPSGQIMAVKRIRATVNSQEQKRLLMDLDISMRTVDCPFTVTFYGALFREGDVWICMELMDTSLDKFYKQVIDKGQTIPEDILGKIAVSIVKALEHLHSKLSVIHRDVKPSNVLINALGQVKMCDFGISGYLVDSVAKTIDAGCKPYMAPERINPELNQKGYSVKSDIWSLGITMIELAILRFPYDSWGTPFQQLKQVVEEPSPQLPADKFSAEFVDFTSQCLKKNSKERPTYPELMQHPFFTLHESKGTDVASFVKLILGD

[5] = target: Mitogen-activated protein kinase 11 (Homo sapiens, UniProt Q15759)
[6] = target: Mitogen-activated protein kinase 6 (Homo sapiens) (UniProt Q16659)
Sequence of Mitogen-activated protein kinase 6 (Homo sapiens) (Q16659 whole entry): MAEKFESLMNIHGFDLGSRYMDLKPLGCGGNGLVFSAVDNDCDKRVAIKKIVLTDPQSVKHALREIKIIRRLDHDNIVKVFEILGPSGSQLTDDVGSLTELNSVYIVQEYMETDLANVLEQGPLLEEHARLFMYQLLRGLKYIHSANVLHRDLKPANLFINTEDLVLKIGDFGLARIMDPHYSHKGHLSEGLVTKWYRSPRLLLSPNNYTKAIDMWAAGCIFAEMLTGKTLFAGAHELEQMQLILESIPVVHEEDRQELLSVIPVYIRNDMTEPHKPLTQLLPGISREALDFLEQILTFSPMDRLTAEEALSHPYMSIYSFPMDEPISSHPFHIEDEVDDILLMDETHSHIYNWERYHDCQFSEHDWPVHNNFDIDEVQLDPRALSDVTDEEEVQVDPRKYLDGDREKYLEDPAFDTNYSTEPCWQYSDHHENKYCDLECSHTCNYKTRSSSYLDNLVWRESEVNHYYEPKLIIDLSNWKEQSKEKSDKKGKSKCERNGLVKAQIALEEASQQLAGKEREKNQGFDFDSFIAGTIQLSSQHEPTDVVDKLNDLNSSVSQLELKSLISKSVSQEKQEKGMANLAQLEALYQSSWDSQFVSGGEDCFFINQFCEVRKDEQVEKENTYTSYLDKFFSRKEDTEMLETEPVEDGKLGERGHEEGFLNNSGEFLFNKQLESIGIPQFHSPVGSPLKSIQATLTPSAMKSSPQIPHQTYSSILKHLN

[7] = target: Serine/threonine-protein kinase PAK 4 (Homo sapiens) (UniProt O96013)
Sequence of Serine/threonine-protein kinase PAK 4 (Homo sapiens) (O96013 whole entry, looked up): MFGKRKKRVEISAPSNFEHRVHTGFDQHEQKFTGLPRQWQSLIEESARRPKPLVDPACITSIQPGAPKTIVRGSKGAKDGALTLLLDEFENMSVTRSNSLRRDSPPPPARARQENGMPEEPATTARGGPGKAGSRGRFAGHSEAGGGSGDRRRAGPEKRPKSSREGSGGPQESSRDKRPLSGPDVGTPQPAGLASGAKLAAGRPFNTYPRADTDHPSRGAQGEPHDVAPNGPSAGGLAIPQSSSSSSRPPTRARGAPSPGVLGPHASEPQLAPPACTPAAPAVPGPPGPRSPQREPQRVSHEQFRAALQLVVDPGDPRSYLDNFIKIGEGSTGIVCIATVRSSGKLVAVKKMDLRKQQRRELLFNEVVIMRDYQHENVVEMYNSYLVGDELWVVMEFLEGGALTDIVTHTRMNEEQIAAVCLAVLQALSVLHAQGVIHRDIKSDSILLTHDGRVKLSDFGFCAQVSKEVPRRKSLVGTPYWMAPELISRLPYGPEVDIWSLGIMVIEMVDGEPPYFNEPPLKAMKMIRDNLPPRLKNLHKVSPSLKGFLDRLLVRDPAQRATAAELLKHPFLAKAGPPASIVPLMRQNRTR

[8] = target: Serine/threonine-protein kinase PAK 5 (Homo sapiens) (UniProt Q9P286)
Sequence of Serine/threonine-protein kinase PAK 5 (Homo sapiens) (Q9P286 whole entry, looked up): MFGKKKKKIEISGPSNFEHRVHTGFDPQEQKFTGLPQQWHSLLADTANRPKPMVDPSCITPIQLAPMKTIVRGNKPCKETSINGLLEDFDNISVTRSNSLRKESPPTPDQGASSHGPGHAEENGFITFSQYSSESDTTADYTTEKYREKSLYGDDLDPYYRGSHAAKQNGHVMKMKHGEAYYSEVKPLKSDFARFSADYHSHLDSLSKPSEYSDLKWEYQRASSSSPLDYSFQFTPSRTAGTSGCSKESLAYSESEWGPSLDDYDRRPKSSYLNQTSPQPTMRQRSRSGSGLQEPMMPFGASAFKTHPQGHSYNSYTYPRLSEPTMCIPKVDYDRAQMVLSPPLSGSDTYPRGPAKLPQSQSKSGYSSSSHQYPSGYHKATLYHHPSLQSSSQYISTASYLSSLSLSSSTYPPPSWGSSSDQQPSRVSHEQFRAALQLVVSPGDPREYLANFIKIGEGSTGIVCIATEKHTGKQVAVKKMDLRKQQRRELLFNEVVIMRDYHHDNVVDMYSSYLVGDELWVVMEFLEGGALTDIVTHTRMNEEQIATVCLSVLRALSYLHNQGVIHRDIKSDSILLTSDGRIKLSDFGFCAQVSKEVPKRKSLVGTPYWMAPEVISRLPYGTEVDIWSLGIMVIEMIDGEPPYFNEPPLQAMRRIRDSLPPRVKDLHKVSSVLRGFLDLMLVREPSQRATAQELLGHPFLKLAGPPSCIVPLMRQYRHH

[9] = target: Serine/threonine-protein kinase PAK 6 (Homo sapiens) (UniProt Q9NQU5)
Sequence of Serine/threonine-protein kinase PAK 6 (Homo sapiens) (Q9NQU5 whole entry, looked up): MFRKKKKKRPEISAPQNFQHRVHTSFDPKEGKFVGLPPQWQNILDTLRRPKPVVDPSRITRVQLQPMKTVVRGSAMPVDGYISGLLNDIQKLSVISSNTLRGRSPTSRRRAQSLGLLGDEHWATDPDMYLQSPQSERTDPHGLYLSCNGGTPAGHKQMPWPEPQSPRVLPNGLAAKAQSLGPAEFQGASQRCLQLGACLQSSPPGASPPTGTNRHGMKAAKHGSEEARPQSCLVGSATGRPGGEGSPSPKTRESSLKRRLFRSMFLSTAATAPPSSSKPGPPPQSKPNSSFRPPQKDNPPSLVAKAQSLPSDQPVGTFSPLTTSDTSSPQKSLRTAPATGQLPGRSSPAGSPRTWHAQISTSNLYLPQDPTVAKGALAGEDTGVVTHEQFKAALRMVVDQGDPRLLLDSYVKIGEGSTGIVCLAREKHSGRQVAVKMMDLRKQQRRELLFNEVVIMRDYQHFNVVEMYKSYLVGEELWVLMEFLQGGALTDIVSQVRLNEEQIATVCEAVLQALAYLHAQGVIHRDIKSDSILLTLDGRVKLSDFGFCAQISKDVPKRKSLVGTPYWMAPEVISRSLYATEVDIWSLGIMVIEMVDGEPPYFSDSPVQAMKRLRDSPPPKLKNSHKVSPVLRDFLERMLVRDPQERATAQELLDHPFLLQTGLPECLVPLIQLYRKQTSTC

[10] = target: Serine/threonine-protein kinase pim-3 (Homo sapiens) (UniProt Q86V86)
[11] = target: cAMP-dependent protein kinase catalytic subunit alpha (Homo sapiens) (UniProt P17612)
[12] = target: Serine/threonine-protein kinase RIO2 (Homo sapiens) (UniProt Q9BVS4)
Sequence of Serine/threonine-protein kinase RIO2 (Homo sapiens) (Q9BVS4 whole entry, looked up): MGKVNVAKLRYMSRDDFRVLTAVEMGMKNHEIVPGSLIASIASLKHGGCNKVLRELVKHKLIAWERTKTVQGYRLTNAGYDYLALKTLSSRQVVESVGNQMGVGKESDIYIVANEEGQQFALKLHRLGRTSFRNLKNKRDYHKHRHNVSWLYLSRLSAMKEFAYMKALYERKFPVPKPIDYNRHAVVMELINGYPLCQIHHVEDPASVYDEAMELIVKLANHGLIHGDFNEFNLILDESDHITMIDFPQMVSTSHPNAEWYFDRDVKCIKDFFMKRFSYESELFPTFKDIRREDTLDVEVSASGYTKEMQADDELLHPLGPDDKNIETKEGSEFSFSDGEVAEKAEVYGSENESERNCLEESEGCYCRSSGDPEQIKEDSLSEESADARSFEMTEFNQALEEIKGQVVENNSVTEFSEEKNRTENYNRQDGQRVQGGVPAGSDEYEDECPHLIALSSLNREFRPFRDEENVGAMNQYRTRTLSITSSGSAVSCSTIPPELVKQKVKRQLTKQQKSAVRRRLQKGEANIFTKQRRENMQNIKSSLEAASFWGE

[13] = target: Ribosomal protein S6 kinase alpha-3 (Homo sapiens) (UniProt P51812)
Sequence of Ribosomal protein S6 kinase alpha-3 (Homo sapiens) (P51812 whole entry): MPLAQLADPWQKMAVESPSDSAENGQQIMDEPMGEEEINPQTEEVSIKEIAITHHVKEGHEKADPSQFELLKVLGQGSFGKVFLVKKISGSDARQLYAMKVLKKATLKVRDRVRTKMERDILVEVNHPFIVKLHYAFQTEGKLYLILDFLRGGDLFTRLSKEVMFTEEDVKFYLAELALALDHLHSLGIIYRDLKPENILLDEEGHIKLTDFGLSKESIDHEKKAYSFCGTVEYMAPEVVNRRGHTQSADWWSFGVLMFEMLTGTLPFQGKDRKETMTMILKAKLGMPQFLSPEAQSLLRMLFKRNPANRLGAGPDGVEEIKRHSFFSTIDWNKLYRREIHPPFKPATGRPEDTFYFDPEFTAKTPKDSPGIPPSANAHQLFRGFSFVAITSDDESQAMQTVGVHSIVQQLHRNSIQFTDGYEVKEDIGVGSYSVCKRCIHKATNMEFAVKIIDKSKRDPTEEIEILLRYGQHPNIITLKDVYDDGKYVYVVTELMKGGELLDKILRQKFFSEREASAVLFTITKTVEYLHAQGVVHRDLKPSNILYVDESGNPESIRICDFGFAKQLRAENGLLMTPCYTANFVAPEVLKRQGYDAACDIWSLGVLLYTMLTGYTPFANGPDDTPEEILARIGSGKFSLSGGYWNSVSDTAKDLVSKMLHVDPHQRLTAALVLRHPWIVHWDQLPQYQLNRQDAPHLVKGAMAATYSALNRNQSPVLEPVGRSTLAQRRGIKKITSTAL

[14] = target: Serine/threonine-protein kinase 10 (Homo sapiens) (UniProt O94804)
Sequence of Serine/threonine-protein kinase 10 (Homo sapiens) (O94804 whole entry, looked up): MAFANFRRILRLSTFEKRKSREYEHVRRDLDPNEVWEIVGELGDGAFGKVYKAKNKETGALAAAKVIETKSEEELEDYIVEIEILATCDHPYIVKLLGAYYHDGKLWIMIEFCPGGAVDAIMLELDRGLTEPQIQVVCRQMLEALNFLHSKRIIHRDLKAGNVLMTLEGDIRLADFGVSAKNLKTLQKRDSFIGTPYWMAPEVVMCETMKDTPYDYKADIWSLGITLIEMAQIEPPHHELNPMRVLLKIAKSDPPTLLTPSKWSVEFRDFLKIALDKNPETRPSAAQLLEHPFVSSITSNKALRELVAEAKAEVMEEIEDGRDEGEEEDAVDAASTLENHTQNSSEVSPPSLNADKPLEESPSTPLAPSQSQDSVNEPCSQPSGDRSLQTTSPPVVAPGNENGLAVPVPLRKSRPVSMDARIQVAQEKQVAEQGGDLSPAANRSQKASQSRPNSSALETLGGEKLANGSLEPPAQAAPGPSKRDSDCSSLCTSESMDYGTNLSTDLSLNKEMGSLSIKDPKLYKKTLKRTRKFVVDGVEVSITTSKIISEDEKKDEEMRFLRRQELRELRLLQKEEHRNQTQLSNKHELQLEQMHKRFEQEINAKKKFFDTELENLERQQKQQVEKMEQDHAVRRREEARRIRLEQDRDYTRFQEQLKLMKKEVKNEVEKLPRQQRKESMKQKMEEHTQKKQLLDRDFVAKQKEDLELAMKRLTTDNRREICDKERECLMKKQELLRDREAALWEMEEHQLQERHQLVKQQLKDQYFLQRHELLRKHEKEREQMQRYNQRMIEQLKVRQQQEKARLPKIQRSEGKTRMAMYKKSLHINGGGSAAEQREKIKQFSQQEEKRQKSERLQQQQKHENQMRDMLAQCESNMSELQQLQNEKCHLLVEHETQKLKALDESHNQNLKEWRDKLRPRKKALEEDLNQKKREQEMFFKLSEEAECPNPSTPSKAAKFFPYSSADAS

[15] = target: T3, Serine/threonine-protein kinase 4 (Homo sapiens) (UniProt Q13043)
T3 sequence (whole entry): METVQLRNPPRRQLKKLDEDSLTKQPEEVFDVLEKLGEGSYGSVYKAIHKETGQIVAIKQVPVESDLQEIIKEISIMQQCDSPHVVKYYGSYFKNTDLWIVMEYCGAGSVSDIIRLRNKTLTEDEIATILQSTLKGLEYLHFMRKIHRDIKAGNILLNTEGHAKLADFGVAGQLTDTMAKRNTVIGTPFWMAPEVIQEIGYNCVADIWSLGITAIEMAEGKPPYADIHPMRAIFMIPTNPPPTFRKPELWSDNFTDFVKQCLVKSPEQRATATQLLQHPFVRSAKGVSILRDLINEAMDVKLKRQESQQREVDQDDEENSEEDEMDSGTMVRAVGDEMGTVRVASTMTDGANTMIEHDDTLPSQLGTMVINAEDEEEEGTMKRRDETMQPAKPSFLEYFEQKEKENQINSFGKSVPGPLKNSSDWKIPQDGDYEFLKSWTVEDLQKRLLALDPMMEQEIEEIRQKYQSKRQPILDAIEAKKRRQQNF

[16] = target: TRAF2 and NCK-interacting protein kinase (Homo sapiens) (UniProt Q9UKE5)
[17] = target: Serine/threonine-protein kinase VRK2 (Homo sapiens) (UniProt Q86Y07)

Row | Structure (SMILES) | ΔTm [1] [°C] | ΔTm [2] [°C] | ΔTm [3] [°C] | ΔTm [4] [°C] | ΔTm [5] [°C] | ΔTm [6] [°C] | ΔTm [7] [°C] | ΔTm [8] [°C] | ΔTm [9] [°C] | ΔTm [10] [°C] | ΔTm [11] [°C] | ΔTm [12] [°C] | ΔTm [13] [°C] | ΔTm [14] [°C] | ΔTm [15] [°C] | ΔTm [16] [°C] | ΔTm [17] [°C]
1 | CCCNC(=O)Nc1ccc(Oc2ncnc3cc(OC)c(OC)cc23)cc1Cl [KRN-633] | 0.3 | 0.9 | -3.7 | 0 | -0.3 | 1.2 | 0.5 | -0.2 | 0.8 | 4.9 | 1 | 0.2 | 5.8 | 0.4 | 0.5 | 0.2 | –
2 | CN(c1cccnc1)c1cc2c(Nc3ccc(F)c(Cl)c3)c(C#N)cnc2cn1 | 1.9 | -3.4 | 3.7 | 0.4 | 0.7 | 4.2 | 2.6 | 1 | -0.2 | -0.2 | 2.2 | 6.1 | 8.5 | 2.8 | 0.4 | -1.2 | –
3 | CN1CCc2[nH]c(=S)c(C#N)c(-c3cccs3)c2C1 | 1 | 1.9 | 0.2 | -0.2 | 4.3 | 1.2 | -0.4 | 0.8 | 0 | 4.2 | 14.1 | 0.3 | 0.7 | 7.2 | – | – | –
4 | CCCCc1c(-c2ccc(O)cc2)[nH]c2nccnc12 [ALOISINE A] | 1.1 | 0.4 | 2.5 | 0.7 | 1 | 3 | 2.6 | 2.2 | 0.5 | 7.7 | 3.8 | -1.8 | 3 | 5 | -0.2 | 0 | 4.2
5 | NCCNc1ncc(C(N)=O)c(Nc2cccc(C(F)(F)F)c2)n1 | 1.1 | 0.9 | 5.9 | 1.6 | 2 | 3 | 6.1 | 5.2 | 0.9 | 1.1 | 2.3 | 4.7 | 3.3 | 2.8 | 0.7 | 1.3 | –
6 | Cc1[nH]c(/C=C2\C(=O)Nc3ccc(S(=O)(=O)N(C)c4cccc(Cl)c4)cc32)c(C)c1C(=O)N1CCN(C)CC1 | 0.6 | -0.1 | 1.1 | 3 | 0.1 | 1.4 | 1.4 | 0.9 | 2 | 9.7 | 3.1 | 1.4 | 7.7 | 1.8 | 0.1 | 0.4 | –
7 | COc1cc2ncnc(Nc3ccc(NC(=O)c4ccccc4)cc3)c2cc1OC [ANILINOQUINAZOLINE1] | 0.2 | 0.9 | 0.3 | 0.2 | 0.3 | -0.1 | 0 | -0.2 | 0.6 | 6.2 | 1 | 0.6 | 5.5 | 0.1 | 0.6 | 0.9 | –
8 | O=C(Nc1cccc(Nc2cc(Nc3cccc(C(F)(F)F)c3)ncn2)c1)C1CC1 | -2 | -0.4 | 0.2 | 2.1 | 2.8 | 2.1 | 0.9 | 1 | -0.3 | 0.1 | 1.1 | 3.4 | 5.6 | 0 | 1.4 | -0.2 | –
